Among the data in patent US11312727B1, “Macrocyclic flu endonuclease inhibitors” (Janssen BioPharma, Inc., priority 2018, dated 2022) are CC50 and EC50 values, retold here.

One data set in a line: in vitro. Conditions: human, CC50, uninfected A549 cells, CellTiter-Glo. A general note: Cellular ATP, detected with luciferase, serves as a proxy for viable cell number.
Data set [1] has as its system Influenza strain A549 A/WSN/33 (H1N1). Nature of the data set: microbe, parasite or virus in culture. The class given is cell-based. The following applies: Influenza A virus, A549, 20 h, A549 cells, influenza A/WSN/33 (H1N1), 20 hours incubation; read-out: A549_A(H1N1) EC50.

Molecules are shown by their SMILES. A value given as a limit tells only on which side of the number the result lay.

Usually CC50 stands for the concentration at which the toxic effect on the cells reaches its halfway point. In general, EC50 refers to the concentration needed to bring the measured effect to its halfway point. In “in vitro”, `CC[C@@H]1/C=C/COc2cc(Cl)ccc2[C@H](c2ccccc2)N2CN1C(=O)c1c(O)c(=O)ccn12` (single isomer, unassigned) [Compound 97BA] yielded a CC50 greater than 1000 nM. The EC50 in data set [1] was greater than 500 nM.

In turn, `CC[C@H]1/C=C/COc2cc(Cl)ccc2[C@H](c2ccccc2)N2CN1C(=O)c1c(O)c(=O)ccn12` (single isomer, unassigned) [Compound 97BB] yielded a CC50 in the data set “in vitro” greater than 1000 nM. Also, the EC50 in data set [1] was greater than 500 nM.

`CC[C@H]1/C=C/COc2c(Cl)cccc2[C@H](c2ccccc2)N2CN1C(=O)c1c(O)c(=O)ccn12` (single isomer, unassigned) [Compound 98AA, (9*S,18*S,E)-4-chloro-9-ethyl-12-hydroxy-18-phenyl-6,9-dihydro-18H-10,17-methanobenzo[b]pyrido[1,2-f][1]oxa[5,6,9]triazacyclotridecine-11,13-dione] had a CC50 in the data set “in vitro” greater than 1000 nM. Further, in data set [1], the EC50 is greater than 500 nM.

`CC[C@@H]1/C=C/COc2c(Cl)cccc2[C@H](c2ccccc2)N2CN1C(=O)c1c(O)c(=O)ccn12` (single isomer, unassigned) [Compound 98AB, (9*R,18*S,E)-4-chloro-9-ethyl-12-hydroxy-18-phenyl-6,9-dihydro-18H-10,17-methanobenzo[b]pyrido[1,2-f][1]oxa[5,6,9]triazacyclotridecine-11,13-dione]: the CC50 in “in vitro” was greater than 200 nM. The EC50 in data set [1] worked out at 2.2 nM.

As to `CC[C@H]1/C=C/COc2c(Cl)cccc2[C@@H](c2ccccc2)N2CN1C(=O)c1c(O)c(=O)ccn12` (single isomer, unassigned) [Compound 98BA, (9*S,18*R,E)-4-chloro-9-ethyl-12-hydroxy-18-phenyl-6,9-dihydro-18H-10,17-methanobenzo[b]pyrido[1,2-f][1]oxa[5,6,9]triazacyclotridecine-11,13-dione], the CC50 in the data set “in vitro” amounted to 26400 nM. Besides, the EC50 in data set [1] came to 830 nM.

In the data set “in vitro”, `CC[C@@H]1/C=C/COc2c(Cl)cccc2[C@@H](c2ccccc2)N2CN1C(=O)c1c(O)c(=O)ccn12` (single isomer, unassigned) [Compound 98BB, (9*R,18*R,E)-4-chloro-9-ethyl-12-hydroxy-18-phenyl-6,9-dihydro-18H-10,17-methanobenzo[b]pyrido[1,2-f][1]oxa[5,6,9]triazacyclotridecine-11,13-dione] displayed a CC50 greater than 1000 nM. The EC50 in data set [1] came to 2.1 nM.

As to `O=C1c2c(O)c(=O)ccn2N2CN1CCOCCOc1ccccc1[C@H]2c1ccccc1` (single isomer, unassigned) [Compound 99A, (2*R)-18-hydroxy-2-phenyl-9,12-dioxa-1,15,22-triazatetracyclo[13.7.1.03,8.017,22]tricosa-3,5,7,17,20-pentaene-16,19-dione], the CC50 in the data set “in vitro” was greater than 1000 nM. For the same compound, the EC50 in data set [1] was greater than 500 nM.

In the case of `O=C1c2c(O)c(=O)ccn2N2CN1CCOCCOc1ccccc1[C@@H]2c1ccccc1` (single isomer, unassigned) [Compound 99B, (2*S)-18-hydroxy-2-phenyl-9,12-dioxa-1,15,22-triazatetracyclo[13.7.1.03,8.017,22]tricosa-3,5,7,17,20-pentaene-16,19-dione], the cytotoxic concentration (CC50) in the data set “in vitro” is greater than 1000 nM. Further, the EC50 in data set [1] turned out to be 167 nM.

Consider `C[C@H]1C/C=C/COc2c(F)cccc2[C@@H](c2ccccc2)N2CN1C(=O)c1c(O)c(=O)ccn12` (single isomer, unassigned) [Compound 100AA, (2*R,9*S,*E)-33-fluoro-15-hydroxy-9-methyl-2-phenyl-12,13,14,16-tetrahydro-11H-4-oxa-1(1,3)-pyrido[2,1-f][1,2,4]triazina-3(1,2)-benzenacyclononaphan-6-ene-14,16-dione], for which the cytotoxic concentration (CC50) in the data set “in vitro” is greater than 100 nM. Also, in data set [1], the EC50 was found to be 1.7 nM.

In the data set “in vitro”, `C[C@@H]1C/C=C/COc2c(F)cccc2[C@@H](c2ccccc2)N2CN1C(=O)c1c(O)c(=O)ccn12` (single isomer, unassigned) [Compound 100AB, (2*R,9*R,*E)-33-fluoro-15-hydroxy-9-methyl-2-phenyl-12,13,14,16-tetrahydro-11H-4-oxa-1(1,3)-pyrido[2,1-f][1,2,4]triazina-3(1,2)-benzenacyclononaphan-6-ene-14,16-dione] registered a CC50 greater than 200 nM. Also, in data set [1], the EC50 was 2.1 nM.

In the case of `C[C@H]1C/C=C/COc2c(F)cccc2[C@H](c2ccccc2)N2CN1C(=O)c1c(O)c(=O)ccn12` (single isomer, unassigned) [Compound 100BA, (2*S,9*S,*E)-33-fluoro-15-hydroxy-9-methyl-2-phenyl-12,13,14,16-tetrahydro-11H-4-oxa-1(1,3)-pyrido[2,1-f][1,2,4]triazina-3(1,2)-benzenacyclononaphan-6-ene-14,16-dione], half-maximal cytotoxicity in the data set “in vitro” (CC50) was put at 40200 nM. Further, in data set [1], the EC50 came to 5210 nM.

Compound `C[C@@H]1C/C=C/COc2c(F)cccc2[C@H](c2ccccc2)N2CN1C(=O)c1c(O)c(=O)ccn12` (single isomer, unassigned) [Compound 100BB, (2*S,9*R,*E)-33-fluoro-15-hydroxy-9-methyl-2-phenyl-12,13,14,16-tetrahydro-11H-4-oxa-1(1,3)-pyrido[2,1-f][1,2,4]triazina-3(1,2)-benzenacyclononaphan-6-ene-14,16-dione] showed a cytotoxic concentration (CC50) in “in vitro” of 32500 nM. For the same compound, the EC50 in data set [1] worked out at 1160 nM.

`O=C1c2c(O)c(=O)ccn2N2CN1C/C=C\COc1c(ccc(Cl)c1Cl)[C@H]2c1ccccc1` (single isomer, unassigned) [Compound 103A, (18*R,Z)-3,4-dichloro-12-hydroxy-18-phenyl-6,9-dihydro-18H-10,17-methanobenzo[b]pyrido[1,2-f][1]oxa[5,6,9]triazacyclotridecine-11,13-dione] yielded a CC50 in the data set “in vitro” greater than 200 nM. Also, the EC50 in data set [1] was greater than 100 nM.

`O=C1c2c(O)c(=O)ccn2N2CN1C/C=C\COc1c(ccc(Cl)c1Cl)[C@@H]2c1ccccc1` (single isomer, unassigned) [Compound 103B, (18*S,Z)-3,4-dichloro-12-hydroxy-18-phenyl-6,9-dihydro-18H-10,17-methanobenzo[b]pyrido[1,2-f][1]oxa[5,6,9]triazacyclotridecine-11,13-dione]: in “in vitro”, the CC50 is greater than 200 nM. In addition, the EC50 in data set [1] amounted to 3.1 nM.

In the case of `O=C1c2c(O)c(=O)ccn2N2CN1C/C=C\COc1c(F)cccc1[C@@H]2c1cccc(F)n1` (single isomer, unassigned) [Compound 104A, (18*R,*Z)-4-fluoro-18-(6-fluoropyridin-2-yl)-12-hydroxy-6,9-dihydro-18H-10,17-methanobenzo[b]pyrido[1,2-f][1]oxa[5,6,9]triazacyclotridecine-11,13-dione], the CC50 in “in vitro” was greater than 200 nM. In addition, the EC50 in data set [1] stood at 10.7 nM.

Regarding `O=C1c2c(O)c(=O)ccn2N2CN1C/C=C\COc1c(F)cccc1[C@H]2c1cccc(F)n1` (single isomer, unassigned) [Compound 104B, (18*S,*Z)-4-fluoro-18-(6-fluoropyridin-2-yl)-12-hydroxy-6,9-dihydro-18H-10,17-methanobenzo[b]pyrido[1,2-f][1]oxa[5,6,9]triazacyclotridecine-11,13-dione], the CC50 in the data set “in vitro” was greater than 200 nM. Besides, in data set [1], the EC50 was greater than 100 nM.

For `CC[C@H]1C/C=C/COc2c(F)cccc2[C@@H](c2ccccc2)N2CN1C(=O)c1c(O)c(=O)ccn12` (single isomer, unassigned) [Compound 105AA, (2*R,9*S,*E)-9-ethyl-33-fluoro-15-hydroxy-2-phenyl-12,13,14,16-tetrahydro-11H-4-oxa-1(1,3)-pyrido[2,1-f][1,2,4]triazina-3(1,2)-benzenacyclononaphan-6-ene-14,16-dione], the CC50 in the data set “in vitro” is greater than 200 nM. Besides, the EC50 in data set [1] was 2.2 nM.

For the compound `CC[C@@H]1C/C=C/COc2c(F)cccc2[C@@H](c2ccccc2)N2CN1C(=O)c1c(O)c(=O)ccn12` (single isomer, unassigned) [Compound 105AB, (2*R,9*R,*E)-9-ethyl-33-fluoro-15-hydroxy-2-phenyl-12,13,14,16-tetrahydro-11H-4-oxa-1(1,3)-pyrido[2,1-f][1,2,4]triazina-3(1,2)-benzenacyclononaphan-6-ene-14,16-dione], in the data set “in vitro”, the CC50 is greater than 200 nM. Further, the EC50 in data set [1] was determined as 1.9 nM.

Take `CC[C@H]1C/C=C/COc2c(F)cccc2[C@H](c2ccccc2)N2CN1C(=O)c1c(O)c(=O)ccn12` (single isomer, unassigned) [Compound 105BA, (2*S,9*S,*E)-9-ethyl-33-fluoro-15-hydroxy-2-phenyl-12,13,14,16-tetrahydro-11H-4-oxa-1(1,3)-pyrido[2,1-f][1,2,4]triazina-3(1,2)-benzenacyclononaphan-6-ene-14,16-dione]: the CC50 in “in vitro” is greater than 200 nM. For the same compound, the EC50 in data set [1] is greater than 100 nM.

With `CC[C@@H]1C/C=C/COc2c(F)cccc2[C@H](c2ccccc2)N2CN1C(=O)c1c(O)c(=O)ccn12` (single isomer, unassigned) [Compound 105BB, (2*S,9*R,*E)-9-ethyl-33-fluoro-15-hydroxy-2-phenyl-12,13,14,16-tetrahydro-11H-4-oxa-1(1,3)-pyrido[2,1-f][1,2,4]triazina-3(1,2)-benzenacyclononaphan-6-ene-14,16-dione], the cytotoxic concentration (CC50) in “in vitro” is greater than 200 nM. Further, the EC50 in data set [1] was greater than 100 nM.

In “in vitro”, `O=C1c2c(O)c(=O)ccn2N2CN1C1(/C=C/COc3ccccc3[C@H]2c2ccccc2)CCC1` (single isomer, unassigned) [Compound 106A, (18′*R,E)-12′-hydroxy-18′-phenyl-6′H,18′H-spiro[cyclobutane-1,9′-[10,17]methanobenzo[b]pyrido[1,2-f][1]oxa[5,6,9]triazacyclotridecine]-11′,13′-dione] showed a CC50 greater than 200 nM. Moreover, in data set [1], the EC50 turned out to be 3.5 nM.

In turn, `O=C1c2c(O)c(=O)ccn2N2CN1C1(/C=C/COc3ccccc3[C@@H]2c2ccccc2)CCC1` (single isomer, unassigned) [Compound 106B, (18′*S,E)-12′-hydroxy-18′-phenyl-6′H,18′H-spiro[cyclobutane-1,9′-[10,17]methanobenzo[b]pyrido[1,2-f][1]oxa[5,6,9]triazacyclotridecine]-11′,13′-dione] yielded a CC50 in “in vitro” greater than 200 nM. Moreover, the EC50 in data set [1] was greater than 100 nM.
